Measurements: ChEMBL document CHEMBL4507310, “Data for DCP probe A-1211212” (2021)

Assays:
[1] = target: Casein kinase I isoform gamma-3 (Homo sapiens) (UniProt Q9Y6M4); settings: Compound concentration 1000.0 nM
[2] = target: Proto-oncogene tyrosine-protein kinase Src (Homo sapiens) (UniProt P12931); settings: Compound concentration 1000.0 nM
[3] = test system: Epidermal growth factor receptor (Homo sapiens), P00533 [UNDEFINED MUTATION]; settings: Compound concentration 1000.0 nM
[4] = target: BDNF/NT-3 growth factors receptor (Homo sapiens) (UniProt Q16620); settings: Compound concentration 1000.0 nM
[5] = target: MAP/microtubule affinity-regulating kinase 4 (Homo sapiens) (UniProt Q96L34); settings: Compound concentration 1000.0 nM
[6] = target: Mitogen-activated protein kinase kinase kinase 11 (Homo sapiens) (UniProt Q16584); settings: Compound concentration 1000.0 nM
[7] = test system: Epidermal growth factor receptor (Homo sapiens), P00533 [UNDEFINED MUTATION]; settings: Compound concentration 1000.0 nM; remark: listed apart in the source
[8] = target: TRAF2 and NCK-interacting protein kinase (Homo sapiens) (UniProt Q9UKE5); settings: Compound concentration 1000.0 nM
[9] = target: Mast/stem cell growth factor receptor Kit (Homo sapiens) (UniProt P10721); settings: Compound concentration 1000.0 nM
[10] = target: Tyrosine-protein kinase ITK/TSK (Homo sapiens) (UniProt Q08881); settings: Compound concentration 1000.0 nM
[11] = target: Tyrosine-protein kinase CSK (Homo sapiens) (UniProt P41240); settings: Compound concentration 1000.0 nM
[12] = target: Casein kinase I isoform delta (Homo sapiens) (UniProt P48730); settings: Compound concentration 1000.0 nM
[13] = target: Androgen receptor (Homo sapiens) (UniProt P10275); experiment: AR (h) Eurofins-Cerep binding assay; design: ligand concentration 1 nM; settings: filed as agonist, Compound concentration 10.0 uM
[14] = target: Cyclin-dependent kinase 11A (Homo sapiens) (UniProt Q9UQ88); settings: Compound concentration 1000.0 nM
[15] = target: Tyrosine-protein kinase Fgr (Homo sapiens) (UniProt P09769); settings: Compound concentration 1000.0 nM
[16] = target: Activin receptor type-2A (Homo sapiens) (UniProt P27037); settings: Compound concentration 1000.0 nM
[17] = target: T1, 5-hydroxytryptamine receptor 2C (Homo sapiens) (UniProt P28335); settings: Compound concentration 10.0 uM
T1 sequence (whole entry): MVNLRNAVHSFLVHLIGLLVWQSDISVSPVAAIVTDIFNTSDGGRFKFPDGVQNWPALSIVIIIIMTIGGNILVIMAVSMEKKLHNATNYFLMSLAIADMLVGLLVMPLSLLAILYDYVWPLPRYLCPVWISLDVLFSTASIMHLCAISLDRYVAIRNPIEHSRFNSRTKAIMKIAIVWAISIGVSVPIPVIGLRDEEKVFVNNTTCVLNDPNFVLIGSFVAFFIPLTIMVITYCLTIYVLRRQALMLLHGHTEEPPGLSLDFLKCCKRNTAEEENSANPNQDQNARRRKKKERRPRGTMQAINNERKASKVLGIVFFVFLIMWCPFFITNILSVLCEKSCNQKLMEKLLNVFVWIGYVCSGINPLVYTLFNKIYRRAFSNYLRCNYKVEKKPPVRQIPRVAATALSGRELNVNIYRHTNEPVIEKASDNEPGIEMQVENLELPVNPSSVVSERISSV

[18] = target: cGMP-dependent protein kinase 1 (Homo sapiens) (UniProt Q13976); settings: Compound concentration 1000.0 nM
[19] = target: Mitogen-activated protein kinase 4 (Homo sapiens) (UniProt P31152); settings: Compound concentration 1000.0 nM
[20] = target: Serine/threonine-protein kinase PAK 6 (Homo sapiens) (UniProt Q9NQU5); settings: Compound concentration 1000.0 nM
[21] = target: Receptor-interacting serine/threonine-protein kinase 4 (Homo sapiens) (UniProt P57078); settings: Compound concentration 1000.0 nM
[22] = test system: Receptor-type tyrosine-protein kinase FLT3 (Homo sapiens), P36888 [UNDEFINED MUTATION]; settings: Compound concentration 1000.0 nM
[23] = target: GABA-A receptor; anion channel (Rattus norvegicus) (UniProt O09028+P15431+P18506+P18508+P19969+P20236+P23574+P23576+P28471+P28473+P30191+P62813+P63079+P63138+Q91ZM7+Q9ES14); settings: Compound concentration 10.0 uM
[24] = target: Angiotensin-converting enzyme (Homo sapiens) (UniProt P12821); experiment: ACE (h) Eurofins-Cerep enzyme and uptake assay; settings: Compound concentration 10.0 uM
[25] = target: T2, Alpha-2B adrenergic receptor (Homo sapiens) (UniProt P18089); experiment: Alpha2B (h) Eurofins-Cerep binding assay; design: ligand concentration 2.5 nM; settings: filed as antagonist, Compound concentration 10.0 uM
T2 sequence (whole entry): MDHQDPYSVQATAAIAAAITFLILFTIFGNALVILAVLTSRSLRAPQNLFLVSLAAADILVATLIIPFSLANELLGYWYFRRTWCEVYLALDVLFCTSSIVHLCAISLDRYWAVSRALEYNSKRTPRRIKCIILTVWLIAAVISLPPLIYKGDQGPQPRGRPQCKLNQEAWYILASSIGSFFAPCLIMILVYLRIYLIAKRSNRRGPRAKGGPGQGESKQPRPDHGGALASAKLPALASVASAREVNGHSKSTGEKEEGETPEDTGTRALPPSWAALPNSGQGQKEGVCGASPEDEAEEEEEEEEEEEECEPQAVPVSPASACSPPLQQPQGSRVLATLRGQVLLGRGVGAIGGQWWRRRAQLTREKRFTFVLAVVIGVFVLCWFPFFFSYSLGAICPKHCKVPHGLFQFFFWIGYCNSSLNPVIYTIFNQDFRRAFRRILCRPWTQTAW

[26] = target: Mast/stem cell growth factor receptor Kit (Homo sapiens) (UniProt P10721); settings: Compound concentration 1000.0 nM; remark: listed apart in the source
[27] = target: Dual specificity testis-specific protein kinase 1 (Homo sapiens) (UniProt Q15569); settings: Compound concentration 1000.0 nM
[28] = target: Serine/threonine-protein kinase LATS1 (Homo sapiens) (UniProt O95835); settings: Compound concentration 1000.0 nM
[29] = target: Tyrosine-protein kinase JAK1 (Homo sapiens) (UniProt P23458); settings: Compound concentration 1000.0 nM
[30] = test system: Hepatocyte growth factor receptor (Homo sapiens), P08581 [M1250T]; settings: Compound concentration 1000.0 nM
[31] = target: Adenosine receptor A3 (Homo sapiens) (UniProt P0DMS8); experiment: A3 (h) Eurofins-Cerep binding assay; design: ligand concentration 0.15 nM; settings: filed as agonist, Compound concentration 10.0 uM

Sequence of Mast/stem cell growth factor receptor Kit (Homo sapiens) (P10721 whole entry): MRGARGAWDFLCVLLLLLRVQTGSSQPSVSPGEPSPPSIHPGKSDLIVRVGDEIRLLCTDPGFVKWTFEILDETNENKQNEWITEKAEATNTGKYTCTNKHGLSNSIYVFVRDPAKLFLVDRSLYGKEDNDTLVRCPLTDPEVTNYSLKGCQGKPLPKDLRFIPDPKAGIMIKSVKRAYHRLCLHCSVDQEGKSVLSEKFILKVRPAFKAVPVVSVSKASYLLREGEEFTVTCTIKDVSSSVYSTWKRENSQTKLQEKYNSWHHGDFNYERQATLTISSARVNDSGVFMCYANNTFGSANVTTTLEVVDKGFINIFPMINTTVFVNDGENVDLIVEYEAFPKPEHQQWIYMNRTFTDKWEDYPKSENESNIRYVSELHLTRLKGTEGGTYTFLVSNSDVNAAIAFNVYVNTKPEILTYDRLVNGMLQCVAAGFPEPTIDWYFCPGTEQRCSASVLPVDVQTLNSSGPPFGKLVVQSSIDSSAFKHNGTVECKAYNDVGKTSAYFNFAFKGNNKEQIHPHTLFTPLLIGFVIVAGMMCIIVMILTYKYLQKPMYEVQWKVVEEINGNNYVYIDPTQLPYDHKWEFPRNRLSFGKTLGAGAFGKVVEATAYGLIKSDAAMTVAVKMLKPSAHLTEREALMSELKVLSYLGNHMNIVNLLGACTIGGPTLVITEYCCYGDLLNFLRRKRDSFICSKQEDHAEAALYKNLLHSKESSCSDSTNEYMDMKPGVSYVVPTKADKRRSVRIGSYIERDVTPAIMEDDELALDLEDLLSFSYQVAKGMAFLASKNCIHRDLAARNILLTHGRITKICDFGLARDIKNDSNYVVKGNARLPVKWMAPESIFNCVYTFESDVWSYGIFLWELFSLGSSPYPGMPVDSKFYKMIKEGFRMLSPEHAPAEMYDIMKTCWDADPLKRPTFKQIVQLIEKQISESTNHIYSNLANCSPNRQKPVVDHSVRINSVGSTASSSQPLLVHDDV
Sequence of Epidermal growth factor receptor (Homo sapiens), P00533 [UNDEFINED MUTATION] (P00533 whole entry, looked up, change not shown): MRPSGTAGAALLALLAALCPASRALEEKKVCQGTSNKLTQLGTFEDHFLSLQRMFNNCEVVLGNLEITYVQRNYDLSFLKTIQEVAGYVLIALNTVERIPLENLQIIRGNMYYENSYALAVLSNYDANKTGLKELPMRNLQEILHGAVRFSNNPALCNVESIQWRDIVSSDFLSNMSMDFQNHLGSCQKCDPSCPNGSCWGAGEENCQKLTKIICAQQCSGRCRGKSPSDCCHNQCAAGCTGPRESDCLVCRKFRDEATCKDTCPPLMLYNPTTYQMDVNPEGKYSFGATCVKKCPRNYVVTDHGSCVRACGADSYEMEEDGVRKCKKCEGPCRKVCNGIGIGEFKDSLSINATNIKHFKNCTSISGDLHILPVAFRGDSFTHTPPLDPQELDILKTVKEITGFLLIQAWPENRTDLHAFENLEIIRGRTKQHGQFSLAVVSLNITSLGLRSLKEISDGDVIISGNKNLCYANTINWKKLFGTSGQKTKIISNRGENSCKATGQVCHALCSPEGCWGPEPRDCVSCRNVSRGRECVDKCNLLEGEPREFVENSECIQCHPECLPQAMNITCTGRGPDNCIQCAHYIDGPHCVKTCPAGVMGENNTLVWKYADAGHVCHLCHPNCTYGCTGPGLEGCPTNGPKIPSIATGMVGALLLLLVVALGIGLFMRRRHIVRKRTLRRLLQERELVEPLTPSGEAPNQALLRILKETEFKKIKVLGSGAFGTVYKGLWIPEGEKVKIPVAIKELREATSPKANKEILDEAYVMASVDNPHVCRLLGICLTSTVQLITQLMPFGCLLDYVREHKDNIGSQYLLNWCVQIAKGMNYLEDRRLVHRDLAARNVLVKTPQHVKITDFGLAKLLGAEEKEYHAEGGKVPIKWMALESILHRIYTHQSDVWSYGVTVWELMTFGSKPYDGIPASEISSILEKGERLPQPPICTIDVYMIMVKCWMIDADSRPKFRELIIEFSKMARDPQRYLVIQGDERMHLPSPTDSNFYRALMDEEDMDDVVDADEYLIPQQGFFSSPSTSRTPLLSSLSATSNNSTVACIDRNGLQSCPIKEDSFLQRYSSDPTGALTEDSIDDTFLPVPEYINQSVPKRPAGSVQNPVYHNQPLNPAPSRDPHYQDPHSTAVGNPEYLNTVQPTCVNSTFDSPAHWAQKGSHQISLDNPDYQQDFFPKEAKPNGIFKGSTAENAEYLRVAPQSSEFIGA
Sequence of Androgen receptor (Homo sapiens) (P10275 whole entry): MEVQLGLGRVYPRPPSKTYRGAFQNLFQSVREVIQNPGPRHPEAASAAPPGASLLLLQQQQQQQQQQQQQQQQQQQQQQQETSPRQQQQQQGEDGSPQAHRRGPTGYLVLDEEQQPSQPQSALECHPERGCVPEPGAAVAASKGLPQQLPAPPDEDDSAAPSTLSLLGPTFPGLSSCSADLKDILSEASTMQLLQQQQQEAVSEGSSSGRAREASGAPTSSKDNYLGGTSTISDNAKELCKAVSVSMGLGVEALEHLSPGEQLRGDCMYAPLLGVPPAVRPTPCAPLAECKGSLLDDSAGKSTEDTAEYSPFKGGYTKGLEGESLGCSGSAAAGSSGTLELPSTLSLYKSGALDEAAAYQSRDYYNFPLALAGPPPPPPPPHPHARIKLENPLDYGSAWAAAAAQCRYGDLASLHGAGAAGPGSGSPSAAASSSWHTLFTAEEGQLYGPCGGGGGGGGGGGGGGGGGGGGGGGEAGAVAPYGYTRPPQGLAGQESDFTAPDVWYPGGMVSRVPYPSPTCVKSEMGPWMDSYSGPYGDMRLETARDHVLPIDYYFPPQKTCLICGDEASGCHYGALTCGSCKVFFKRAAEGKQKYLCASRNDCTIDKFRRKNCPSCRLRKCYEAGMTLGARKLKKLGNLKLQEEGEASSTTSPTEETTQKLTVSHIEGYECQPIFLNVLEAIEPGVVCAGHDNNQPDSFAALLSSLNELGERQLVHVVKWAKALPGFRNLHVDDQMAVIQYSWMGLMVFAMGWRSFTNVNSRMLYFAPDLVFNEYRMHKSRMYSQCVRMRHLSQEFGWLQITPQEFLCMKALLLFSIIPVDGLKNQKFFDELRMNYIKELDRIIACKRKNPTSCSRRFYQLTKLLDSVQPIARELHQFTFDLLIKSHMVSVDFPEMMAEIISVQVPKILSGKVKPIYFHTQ
Sequence of Angiotensin-converting enzyme (Homo sapiens) (P12821 whole entry): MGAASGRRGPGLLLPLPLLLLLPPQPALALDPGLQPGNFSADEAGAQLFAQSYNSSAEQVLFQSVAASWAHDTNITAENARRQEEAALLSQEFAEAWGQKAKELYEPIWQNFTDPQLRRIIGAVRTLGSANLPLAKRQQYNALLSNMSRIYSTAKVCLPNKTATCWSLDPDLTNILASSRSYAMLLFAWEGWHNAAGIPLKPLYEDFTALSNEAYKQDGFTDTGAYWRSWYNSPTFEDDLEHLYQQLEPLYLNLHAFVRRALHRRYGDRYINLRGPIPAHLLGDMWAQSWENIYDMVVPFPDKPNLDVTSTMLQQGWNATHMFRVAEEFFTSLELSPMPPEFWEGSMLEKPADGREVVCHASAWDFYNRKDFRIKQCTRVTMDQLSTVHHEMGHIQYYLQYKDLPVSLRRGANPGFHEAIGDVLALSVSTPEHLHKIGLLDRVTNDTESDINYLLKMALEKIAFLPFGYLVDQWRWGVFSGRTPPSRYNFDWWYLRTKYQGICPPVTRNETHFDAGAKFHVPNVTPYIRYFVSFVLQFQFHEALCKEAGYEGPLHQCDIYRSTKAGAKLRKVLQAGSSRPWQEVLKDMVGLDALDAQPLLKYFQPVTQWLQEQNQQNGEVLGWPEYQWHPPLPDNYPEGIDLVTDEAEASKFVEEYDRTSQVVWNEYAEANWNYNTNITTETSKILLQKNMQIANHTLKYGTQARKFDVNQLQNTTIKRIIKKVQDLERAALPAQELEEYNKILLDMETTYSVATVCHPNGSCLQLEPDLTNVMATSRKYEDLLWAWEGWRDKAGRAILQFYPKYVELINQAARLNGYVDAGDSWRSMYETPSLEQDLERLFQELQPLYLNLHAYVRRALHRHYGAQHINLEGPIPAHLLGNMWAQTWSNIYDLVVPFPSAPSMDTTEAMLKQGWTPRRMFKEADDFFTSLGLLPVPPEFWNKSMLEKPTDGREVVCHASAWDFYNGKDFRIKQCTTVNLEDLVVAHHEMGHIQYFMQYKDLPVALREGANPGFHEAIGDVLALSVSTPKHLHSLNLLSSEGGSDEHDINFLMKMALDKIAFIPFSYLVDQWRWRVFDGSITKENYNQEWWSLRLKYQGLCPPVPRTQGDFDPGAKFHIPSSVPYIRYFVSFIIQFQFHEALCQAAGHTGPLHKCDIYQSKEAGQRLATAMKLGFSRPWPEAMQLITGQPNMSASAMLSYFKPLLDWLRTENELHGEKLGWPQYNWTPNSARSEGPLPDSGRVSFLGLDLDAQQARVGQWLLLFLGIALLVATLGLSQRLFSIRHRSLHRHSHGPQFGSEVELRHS
Sequence of Casein kinase I isoform delta (Homo sapiens) (P48730 whole entry, looked up, canonical isoform): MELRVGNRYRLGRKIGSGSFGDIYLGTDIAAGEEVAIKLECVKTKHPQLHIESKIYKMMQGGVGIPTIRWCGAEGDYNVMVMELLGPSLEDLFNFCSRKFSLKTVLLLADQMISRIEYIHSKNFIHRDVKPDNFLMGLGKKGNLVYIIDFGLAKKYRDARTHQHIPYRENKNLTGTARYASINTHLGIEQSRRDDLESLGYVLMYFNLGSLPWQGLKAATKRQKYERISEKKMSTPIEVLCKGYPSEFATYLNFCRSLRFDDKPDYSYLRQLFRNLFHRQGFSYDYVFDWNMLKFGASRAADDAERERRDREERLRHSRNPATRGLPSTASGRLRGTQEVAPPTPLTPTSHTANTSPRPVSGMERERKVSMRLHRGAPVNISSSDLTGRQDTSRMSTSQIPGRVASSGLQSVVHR

SMILES | residual activity [1] [%] | residual activity [2] [%] | residual activity [3] [%] | residual activity [4] [%] | residual activity [5] [%] | residual activity [6] [%] | residual activity [7] [%] | residual activity [8] [%] | residual activity [9] [%] | residual activity [10] [%] | residual activity [11] [%] | residual activity [12] [%] | % Inhibition of Control Specific Binding (Mean n=2) [13] [%] | residual activity [14] [%] | residual activity [15] [%] | residual activity [16] [%] | inhibition [17] [%] | residual activity [18] [%] | residual activity [19] [%] | residual activity [20] [%] | also measured
O=C(NS(=O)(=O)c1ccc(NCC2CCOCC2)c([N+](=O)[O-])c1)c1ccc(N2CCN(Cc3ccc(C(F)(F)F)cc3-c3ccc(Cl)cc3)CC2)cc1Oc1cnc2[nH]ccc2c1 [A-1210227] | 75 | 76 | 86 | 88 | 85 | 91 | 96 | 100 | 100 | 100 | 87 | 80 | -0.7 | 100 | 100 | 93 | -0.17 | 96 | 97 | 73 | residual activity [21]: 75%; residual activity [22]: 100%; inhibition [23]: 14.5%; % Inhibition of Control Values (Mean n=2) [24]: -32.2%; % Inhibition of Control Specific Binding (Mean n=2) [25]: -11.6%; residual activity [26]: 100%; residual activity [27]: 100%; residual activity [28]: 100%; residual activity [29]: 100%; residual activity [30]: 86%; % Inhibition of Control Specific Binding (Mean n=2) [31]: 6.5%
CO[C@H]1CC[C@H](CNc2ccc(S(=O)(=O)NC(=O)c3ccc(N4CCN(CC5=C(c6ccc(Cl)cc6)CC(C)(C)CC5)CC4)cc3Oc3cnc4[nH]ccc4c3)cc2[N+](=O)[O-])CC1 [A-1211212] | 91 | 78 | 58 | 100 | 83 | 74 | 100 | 100 | 91 | 87 | 76 | 93 | -8.6 | 95 | 100 | 91 | -4.69 | 92 | 100 | 75 | residual activity [21]: 65%; residual activity [22]: 86%; inhibition [23]: 19%; % Inhibition of Control Values (Mean n=2) [24]: -72.6%; % Inhibition of Control Specific Binding (Mean n=2) [25]: -20.1%; residual activity [26]: 100%; residual activity [27]: 100%; residual activity [28]: 87%; residual activity [29]: 96%; residual activity [30]: 96%; % Inhibition of Control Specific Binding (Mean n=2) [31]: 13.3%
